From US20100267672A1, “NOVEL COMPOUNDS OF REVERSE-TURN MIMETICS, METHOD FOR MANUFACTURING THE SAME AND USE THEREOF” (Choongwae Pharma Corporation, priority 2009, published 2010)

Columns and labels:
[1] = tested on: human AML cell line, MV4-11; test: Anticancer activity in acute myeloid leukemia (AML) animal model; type: in vivo, Balb/C nude mice; details: intravenously once a day, five times per week for two weeks, MV4-11 implanted nude mice, Day 12 vs Day 1; for inhibition in vivo at 25 mg/kg: Mus musculus, iv, 288 h, read-out: Tumor growth Inhibition Rate
Procedure: Test materials were prepared in the form of prodrugs to increase the solubility of compounds of interest. A phosphate functional group which may be either a monosodium or disodium form was introduced as a prodrug substituent.
The human AML cell line, MV4-11, was purchased (ATCC, U.S.A.) and cultured at 37° C. under a 5% CO2 condition in Iscove's Modified Dulbecco's Medium (GIBCO, cat# 21056) supplemented with 10% fetal bovine serum (GIBCO, cat# 25030-081). Female Balb/C nude mice (OrientBio, Sungnam-city, Korea), 5-6 weeks old, were acclimated to the breeding room. Using a sterilized syringe, a mixture of 1:1 of MV4-11 cells: matrigel (v/v) was implanted in an amount of 5×10^6/mouse beneath the axilla of each of the mice. When tumor was formed 2 weeks after the implantation, the mice were divided into five (5) groups in such a manner that a minimum deviation with regard to tumor size and body weight was obtained among the groups. The test materials were dissolved in physiological saline and intravenously injected at a dose of 10 ml/kg once a day and five times per week for two weeks (administration days of test materials, D1˜D5, D8˜D12). For a control, only physiological saline was used. The tumor size was determined as calculated by the following equation: Long Axis×Short Axis×Short Axis/2. The Long and Short Axes of the tumor were measured in length using a digital caliper (Mitsutoyo, Japan). The anticancer activity of the test materials was numerated according to the following equation.
Tumor growth Inhibition Rate A (%)=100×[1−(b−a)/(Ref b−Ref a)] […]
a=mean tumor size of drug-administered group on Day 1 b=mean tumor size of drug-administered group on Day 12
Ref a=mean tumor size of the control on Day 1
Ref b=mean tumor size of the control on Day 12
When the mean tumor size of the drug-administered group on Day 12 was smaller than that of just before the administration of the test materials, it is indicated as Regression (>100%).

hERG = molecular target: T1, hERG (Homo sapiens, UniProt Q12809); test: In vitro cardiotoxicity assay: inhibitory activity against hERG (whole-cell patch clamp); type: cell-based; details: hERG-transfected HEK293 cells, tail current of outward hERG K+ currents; read-out: Cardiotoxicity (hERG Inhibiting Activity Assay, IC50)
T1 construct: expressed in transfected cells; host or cells: HEK293
T1 sequence (Q12809 whole entry): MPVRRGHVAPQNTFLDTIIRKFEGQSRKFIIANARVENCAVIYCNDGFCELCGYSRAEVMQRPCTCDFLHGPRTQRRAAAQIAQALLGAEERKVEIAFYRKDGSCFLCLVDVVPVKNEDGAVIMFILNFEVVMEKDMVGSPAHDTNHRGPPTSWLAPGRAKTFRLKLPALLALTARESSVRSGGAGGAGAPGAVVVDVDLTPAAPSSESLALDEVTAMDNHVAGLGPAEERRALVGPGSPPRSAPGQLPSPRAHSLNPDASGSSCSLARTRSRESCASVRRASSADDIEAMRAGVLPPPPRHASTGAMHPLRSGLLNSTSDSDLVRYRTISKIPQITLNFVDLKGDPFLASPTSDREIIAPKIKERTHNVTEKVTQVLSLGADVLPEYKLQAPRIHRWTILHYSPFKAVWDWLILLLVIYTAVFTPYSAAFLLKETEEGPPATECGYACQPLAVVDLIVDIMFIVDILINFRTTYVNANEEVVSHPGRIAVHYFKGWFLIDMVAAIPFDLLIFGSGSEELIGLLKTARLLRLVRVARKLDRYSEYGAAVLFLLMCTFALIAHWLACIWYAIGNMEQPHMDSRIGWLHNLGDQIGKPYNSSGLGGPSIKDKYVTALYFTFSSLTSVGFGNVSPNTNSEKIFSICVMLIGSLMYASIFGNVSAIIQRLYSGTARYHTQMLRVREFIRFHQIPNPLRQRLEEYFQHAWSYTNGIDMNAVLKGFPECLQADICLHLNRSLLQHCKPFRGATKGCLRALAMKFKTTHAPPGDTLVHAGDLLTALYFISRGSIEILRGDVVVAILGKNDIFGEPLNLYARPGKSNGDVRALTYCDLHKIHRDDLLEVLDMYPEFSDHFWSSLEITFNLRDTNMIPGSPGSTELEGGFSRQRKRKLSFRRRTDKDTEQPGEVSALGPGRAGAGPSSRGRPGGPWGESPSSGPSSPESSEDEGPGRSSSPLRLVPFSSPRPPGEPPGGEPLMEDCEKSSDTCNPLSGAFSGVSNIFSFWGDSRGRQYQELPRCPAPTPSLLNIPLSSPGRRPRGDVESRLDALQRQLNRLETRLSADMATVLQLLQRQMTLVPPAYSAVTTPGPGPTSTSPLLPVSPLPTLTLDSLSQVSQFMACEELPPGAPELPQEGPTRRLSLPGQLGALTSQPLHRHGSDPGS
Procedure: HEK293 was transfected with hERG (human Ether-à-go-go Related Gene) cDNA for 48 hrs using Lipofectamine 2000 (Invitrogen, USA). The transfected HEK293 cells were cultured in Modified Dulbecco's Medium (MEM, Gibco, 1 L) supplemented with 10% FBS, sodium pyruvate (10 ml), penicillin/streptomycin (10 ml) and Zeocin (100 μg/ml, Invitrogen) at 37° C. under 5% CO2. After being detached from incubation vessels by trypsinization, the HEK293 cells were placed in a chamber for patch clamp recording. A whole-cell patch clamp method was used to record hERG K+ currents in HEK293 cells using the following intra/extracellular solutions.
The membrane potential was depolarized from −80 mV to +20 mV for 1,000 ms in a whole-cell patch clamp mode and then repolarized to −40 mV for 1,000 ms, during which the tail current of outward hERG K+ currents was recorded. In this regard, the concentrations of the compounds that are required for 50% inhibition of the current were represented as IC50.
The risk of cardiotoxicity has been raised in many drugs. Some of them were withdrawn from the market because they caused a sudden death due to the cardiotoxicity thereof. The cardiotoxicity of drugs is associated with the extension of QT intervals on electrocardiograms. Particularly, most of the drugs extending QT intervals are known to inhibit IKr channels (Bernard Fermini and Anthony A. Fossa, Nature Reviews Drug Discovery, 2003, 2, 439-447). […] In this example, the risk of cardiotoxicity was evaluated using human hERG channel-expressing mammal cells, which are internationally recognized as a system (ICH guideline, S7B, Step 4, 12, May, 2005). Although pharmaceutical activity of drug should be taken into consideration, a drug is evaluated as having a low cardiotoxicity risk when IC50 thereof is 10 μM or higher. […] Having higher IC50, compound A1 was evaluated to be safer than compound A, and compounds B1, B2 and B3 than compound B.

[2] = Solubility of monosodium and disodium prodrug forms; type: physicochemical; details: aqueous medium; prodrug prepared by adding sodium hydroxide to P2
Procedure: The compounds were prepared in the form of prodrugs to improve the solubility thereof. Phosphate may be introduced as a possible prodrug substituent which can exist as in either monosodiumphosphate or disodiumphosphate form.
(§1) This prodrug was prepared by adding sodium hydroxide to P2, which was synthesized according to Example 9. Both monosodium and disodium forms of the prodrug show a solubility of up to 400 mg/ml. Both forms have advantageous properties as a composition for I.V. injection in that a monosodium form has pH 4.45 and a disodium form has pH of 7.62.

[3] = pH of monosodium and disodium prodrug forms; type: physicochemical; details: prodrug form as a composition for I.V. injection
Procedure: as §1
In the graph, the horizontal axis represents the added amounts of sodium hydroxide. In the graph, the first and second points of inflection correspond to the time of production of monosodium and disodium forms, respectively.

| SMILES | IC50 (hERG) | inhibition in vivo at 25 mg/kg ([1]; dose 25 mg/kg) | also measured |
| --- | --- | --- | --- |
| Nc1ccn([C@@H]2O[C@H](CO)[C@@H](O)[C@@H]2O)c(=O)n1 [Ara-C, reference compound] |  |  | Tumor growth Inhibition Rate ([1]; dose 25 mg/kg, 25 mg/kg): 66%; Tumor growth Inhibition Rate ([1]; dose 50 mg/kg): 77% |
| C=CCN1CC(=O)N2[C@@H](Cc3ccc(OP(=O)(O)O)cc3)C(=O)N(Cc3cccc4c(C(=O)CC)cn(C)c34)C[C@@H]2N1C(=O)NCc1ccccc1 [Compound A1] | 80 µM | > 100% |  |
| C=CCN1CC(=O)N2[C@@H](Cc3ccc(OP(=O)(O)O)cc3)C(=O)N(Cc3cccc4c(C(C)=O)cn(C)c34)C[C@@H]2N1C(=O)NCc1ccccc1 [Compound A2] |  | > 100% |  |
| C=CCN1CC(=O)N2[C@@H](Cc3ccc(OP(=O)(O)O)cc3)C(=O)N(Cc3cccc4c(C(C)=O)cn(CCC)c34)C[C@@H]2N1C(=O)NCc1ccccc1 [Compound A3] |  | > 100% |  |
| C=CCN1CC(=O)N2[C@@H](Cc3ccc(OP(=O)(O)O)cc3)C(=O)N(Cc3cccc4c(C(C)=O)c[nH]c34)C[C@@H]2N1C(=O)NCc1ccccc1 [Compound A] | 14 µM | 61% |  |
| C=CCN1CC(=O)N2[C@@H](Cc3ccc(OP(=O)(O)O)cc3)C(=O)N(Cc3cccc4c(C(=O)CC(C)(C)C)cn(CCC)c34)C[C@@H]2N1C(=O)NCc1ccccc1 [Compound B1] | 18 µM | > 100% |  |
| C=CCN1CC(=O)N2[C@@H](Cc3ccc(OP(=O)(O)O)cc3)C(=O)N(Cc3cccc4c(C(=O)CC(C)(C)C)cn(C)c34)C[C@@H]2N1C(=O)NCc1ccccc1 [Compound B2] | 25 µM | > 100% |  |
| C=CCN1CC(=O)N2[C@@H](Cc3ccc(OP(=O)(O)O)cc3)C(=O)N(Cc3cccc4c(C(=O)CC(C)(C)C)cn(CCCCCC)c34)C[C@@H]2N1C(=O)NCc1ccccc1 [Compound B3] | 20 µM | 80% |  |
| C=CCN1CC(=O)N2[C@@H](Cc3ccc(OP(=O)(O)O)cc3)C(=O)N(Cc3cccc4c(C(=O)CC(C)(C)C)c[nH]c34)C[C@@H]2N1C(=O)NCc1ccccc1 [Compound B] | 1.6 µM | 49% |  |
| C=CCN1CC(=O)N2[C@@H](Cc3ccc(OP(=O)(O)O)cc3)C(=O)N(Cc3cccc4c(C(=O)C5CC5)cn(C)c34)C[C@@H]2N1C(=O)NCc1ccccc1 [Compound C1] |  | > 100% |  |
| C=CCN1CC(=O)N2[C@@H](Cc3ccc(OP(=O)(O)O)cc3)C(=O)N(Cc3cccc4c(C(=O)C5CC5)cn(CC)c34)C[C@@H]2N1C(=O)NCc1ccccc1 [Compound C2] |  | > 100% |  |
| C=CCN1CC(=O)N2[C@@H](Cc3ccc(OP(=O)(O)O)cc3)C(=O)N(Cc3cccc4c(C(=O)C5CC5)cn(CCCC)c34)C[C@@H]2N1C(=O)NCc1ccccc1 [Compound C3] |  | 70% |  |
| C=CCN1CC(=O)N2[C@@H](Cc3ccc(OP(=O)(O)O)cc3)C(=O)N(Cc3cccc4c(C(=O)C5CC5)c[nH]c34)C[C@@H]2N1C(=O)NCc1ccccc1 [Compound C] |  | 25% |  |
| C=CCN1CC(=O)N2[C@@H](Cc3ccc(OP(=O)([O-])[O-])cc3)C(=O)N(Cc3cccc4c(C(C)=O)cn(C)c34)C[C@@H]2N1C(=O)NCc1ccccc1.[Na+].[Na+] [disodium form] |  |  | solubility [2]: ≤ 400 mg/mL; pH [3]: 7.62 |
| C=CCN1CC(=O)N2[C@@H](Cc3ccc(OP(=O)([O-])O)cc3)C(=O)N(Cc3cccc4c(C(C)=O)cn(C)c34)C[C@@H]2N1C(=O)NCc1ccccc1.[Na+] [monosodium form, Sodium 4-(((6S,9AS)-1-(benzylcarbamoyl)-8-((3-acetyl-1-methyl-1H-indol-7-yl)methyl)-2-allyl-octahydro-4,7-dioxo-1H-pyrazino[2,1-C][1,2,4]triazin-6-yl)methyl)phenyl hydrogenphosphate] |  |  | solubility [2]: ≤ 400 mg/mL; pH [3]: 4.45 |
